Where two headings read alike, the source gives them in different places.
Key:
CSF Aβ40 = test: Rat CSF Aβ40 assay (4G8-TSD ELISA); type: in vivo; conditions: acute rat studies; read-out: ED50 for reduction of CSF Aβ40
From the text: As a result of these sequence differences, antibodies that recognize the N-terminal region of human Aβ, such as 26D6, bind weakly to rodent Aβ. […] Table 1: Summary of Antibody Pairs Used to Assay In vivo Samples Each of these assays was validated using several methods. […] The optimized and validated Aβ assays still contained a small amount of the signal (5-20% of vehicle control) which could not be depleted by anti-Aβ antibodies or treatment with γ-secretase inhibitors. […] Female Harlan Sprague-Dawley rats (∼200 - 250 g) were dosed daily by oral gavage with a dosing vehicle of 99% PEG-400, 1% Tween-80 at 4 mL/kg in the morning. […] All procedures were done in concordance with ACUC guidelines. […] Plasma was obtained after centrifugation. […] CSF samples were centrifuged to remove cells or debris prior to dilution at 1:2 in 4% BSA and frozen for subsequent analysis. […] Plates were coated with TSD antibody and washed as for the brain Aβ40 assay. CSF samples were diluted 1:10 in PBS, pH 7.8, 0.1 % Tween-20. At time of collection, CSF was previously diluted 1:2 in 4% BSA in water. […] Samples were detected using 4G8-biotin (Signet) diluted 1:8000 in PBS, 0.05% Tween, 0.1% BSA for 1 hour.

mouse Notch1-ΔE = test: Inhibition of Notch1-ΔE signaling in Hela cells (CBF1-luciferase reporter); conditions: read-out: IC50 for inhibition of Notch1-ΔE signaling
Procedure: The mouse Notch1-ΔE construct contains the mouse Notch1 signal sequence and the M1727V mutation within the transmembrane domain to suppress internal translation initiation.
Hela cells were maintained in DMEM (GibcoBRL) containing 10% FBS (GibcoBRL), Penicillin/Streptomycin (GibcoBRL) and 2 mM L-glutamine (GibcoBRL). Cells were transiently transfected using TransIT-HelaMONSTER (Mirus) according to the manufacturer's directions. […] The CBF1-luciferase reporter construct consists of 4X copies of the CBF1 binding element upstream of the SV40 promoter (pGL3-Promoter, Promega). […] DNA stocks were diluted in TE buffer (10 mM Tris, 1 mM EDTA, pH 8.0) for transfection. […] Test compounds were initially diluted in a 96 well polypropylene plate in 100% DMSO. […] Diluted compound solutions (10 µL) were added to the cell plate yielding a final 0.1 % DMSO concentration. Cell plates containing compound were incubated overnight at 37°C. Following this overnight incubation, media was gently removed and 25 µL of phosphate buffered saline (with calcium and magnesium) was added to each well. Luc-Screen (Applied Biosystems) reagents A and B were mixed in equal proportions and 50 µL of the mixture was added to each well. The plate was incubated at room temperature for 10 minutes before black backing was attached to the bottom of the plate and the signal was read on a TopCount (Packard). […]

[1] = Metabolic stability in liver microsomes (human); type: in vitro ADME
Procedure: Mouse, rat, dog, human, and cynomolgus monkey liver microsomes were obtained from BD Gentest (Woburn, MA). The lot numbers were 13 (mouse), 8 (rat), 8 (dog), 19 and 26 (human), and 3 (cynomolgus monkey). […] The reaction, conducted in triplicate, was initiated by the addition of NADPH followed by incubation at 37°C for 50 minutes. Aliquots of samples (0.25 mL) were taken at 0, 5, 10, 20, 30, 40 and 50 minutes and the reaction was quenched by the addition of 3 volumes of acetonitrile. […] The reaction, conducted in triplicate, was initiated by the addition of NADPH followed by incubation at 37 °C for 50 minutes. Aliquots of samples (0.25 mL) were taken at 0, 5, 10, 20, 30, 40 and 50 minutes and the reaction was quenched by the addition of 3 volumes of acetonitrile. […] The reaction, conducted in duplicate, was initiated by the addition of NADPH followed by incubation at 37°C for 40 minutes. Aliquots of samples (0.25 mL) were taken at 0, 5, 10, 15, 20, 30 and 40 minutes and the reaction was quenched by the addition of 3 volumes of acetonitrile. For all studies, samples were analyzed immediately by an LC/MS method.

brain Aβ40 = test: Rat brain Aβ40 assay (252-TSD ELISA); type: in vivo; conditions: for Day 7 5hr Brain Aβ40 (%Veh): 7 days; for Terminal Brain Aβ40 (%Veh) 5hr: 5 hours after the fourth dose; for Terminal Brain Aβ40 (%Veh) 12hr: 12 hours after the third dose; for Terminal Brain Aβ40 (%Veh) 24hr: 24 hours after the third dose; for brain Aβ40, % of baseline Aβ40 values: 2 to 24 hours post dosing
Procedure: All procedures were done in concordance with ACUC guidelines. […] Plasma was obtained after centrifugation. […] CSF samples were centrifuged to remove cells or debris prior to dilution at 1:2 in 4% BSA and frozen for subsequent analysis. […] Rat brain (half a hemisphere) was homogenized using a polytron at 4 mL/g in PBS, pH 7.8, 2% CHAPS, complete protease inhibitors (Roche). […] White Microlite II ELISA plates (Thermo Electron) were incubated with 50 µg/mL TSD9S3.2 antibody in PBS for 1 hour at 37°C. Plates were blocked with 200 µL 5% bovine serum albumin (BSA; weight/volume prepared in PBS) for 2 hours at room temperature on a plate shaker and then washed 5 times with 500 µL/well of PBS, 0.05% Tween-20. Clarified brain homogenates were loaded in 6 replicates of 50 µL per well and incubated for 1 hour at room temperature. […] Samples were normalized to a brain homogenate reference placed on each plate.

[2] = Compound plasma levels / AUC in rat studies; type: in vivo; conditions: for concentration at 5 h: female, Sprague-Dawley, rat, plasma, oral
Procedure: All procedures were done in concordance with ACUC guidelines. […] Plasma was obtained after centrifugation. […] CSF samples were centrifuged to remove cells or debris prior to dilution at 1:2 in 4% BSA and frozen for subsequent analysis.
Animals were euthanized 12 or 24 hours after the third dose or 5 hours after the fourth dose. […] Table 2: Summary of Results from 4-day Rat Studies

[3] = rat, Study No. 2, 100 mg/kg/day

## NC(=O)[C@@H](CCC(F)(F)F)N(Cc1ccc(-c2ncon2)cc1F)S(=O)(=O)c1ccc(Cl)cc1 [(2R)-2-[[(4-chlorophenyl)sulfonyl][[2-fluoro-4-(1,2,4-oxadiazol-3-yl)phenyl]methyl]amino]-5,5,5-trifluoropentanamide]
CSF Aβ40
  ED50: 1 to 10 mg/kg
Mouse Notch1-ΔE
  IC50: 0.058 ± 0.023 µM
[1]; human microsomes, NADPH-fortified, 1 µM
  rate of in vitro metabolism: 32 pmol/min/mg protein
[1]; human, scaled from liver microsome rate
  predicted in vivo (serum) clearance: ~8 mL/min/kg
Brain Aβ40; Rat Study No. 3, 30 mg/kg/day
  Day 7 5hr Brain Aβ40 (%Veh): 13%Veh
Brain Aβ40; Rat Study No. 3, 300 mg/kg/day
  Day 7 5hr Brain Aβ40 (%Veh): 13%Veh
Brain Aβ40; acute rat studies, read-out: ED50 for reduction of brain Aβ40
  ED50: 1 to 10 mg/kg
Brain Aβ40; rat, Study No. 2, 3 mg/kg/day
  Brain % Aβ AUC Reduction: 57%
  Terminal Brain Aβ40 (%Veh) 5hr: 16%Veh
  Terminal Brain Aβ40 (%Veh) 12hr: 34%Veh
  Terminal Brain Aβ40 (%Veh) 24hr: 94%Veh
Brain Aβ40; rat, Study No. 2, 10 mg/kg/day
  Brain % Aβ AUC Reduction: 91%
  Terminal Brain Aβ40 (%Veh) 5hr: 6%Veh
  Terminal Brain Aβ40 (%Veh) 12hr: 4%Veh
  Terminal Brain Aβ40 (%Veh) 24hr: 23%Veh
Brain Aβ40; rat, Study No. 2, 30 mg/kg/day
  Brain % Aβ AUC Reduction: 93%
  Terminal Brain Aβ40 (%Veh) 5hr: 6%Veh
  Terminal Brain Aβ40 (%Veh) 12hr: 4%Veh
  Terminal Brain Aβ40 (%Veh) 24hr: 15%Veh
Brain Aβ40; [3]
  Brain % Aβ AUC Reduction: 96%
  Terminal Brain Aβ40 (%Veh) 5hr: 3%Veh
  Terminal Brain Aβ40 (%Veh) 12hr: 3%Veh
  Terminal Brain Aβ40 (%Veh) 24hr: 7%Veh
Brain Aβ40; rat, Study No.1, 3 mg/kg/day
  Brain % Aβ AUC Reduction: 49%
  Terminal Brain Aβ40 (%Veh) 5hr: 39%Veh
  Terminal Brain Aβ40 (%Veh) 12hr: 35%Veh
  Terminal Brain Aβ40 (%Veh) 24hr: 92%Veh
Brain Aβ40; rat, Study No.1, 10 mg/kg/day
  Brain % Aβ AUC Reduction: 85%
  Terminal Brain Aβ40 (%Veh) 5hr: 12%Veh
  Terminal Brain Aβ40 (%Veh) 12hr: 9%Veh
  Terminal Brain Aβ40 (%Veh) 24hr: 28%Veh
Brain Aβ40; rat, Study No.1, 30 mg/kg/day
  Brain % Aβ AUC Reduction: 90%
  Terminal Brain Aβ40 (%Veh) 5hr: 8%Veh
  Terminal Brain Aβ40 (%Veh) 12hr: 9%Veh
  Terminal Brain Aβ40 (%Veh) 24hr: 13%Veh
Brain Aβ40; rat, single dose 1 mg/kg
  change in brain Aβ40: did not cause a statistically significant change
Brain Aβ40; rat, single dose 10 mg/kg
  brain Aβ40, % of baseline Aβ40 values: less than 25%
Brain Aβ40; rat, single dose 30 mg/kg
  brain Aβ40, % of vehicle control: 16%
Brain Aβ40; rat, single dose 100 mg/kg
  brain Aβ40, % of baseline Aβ40 values: less than 25%
Brain Aβ40; rats, 30 or 300 mg/kg/day, 5 hours post dose
  Brain Aβ40 levels at termination, % of the vehicle control: 13%
Brain Aβ40; subchronic rat studies, doses of 10 mg/kg/day or higher
  Brain Aβ40 AUC reduction: greater than 85%
[2]; 30 mg/kg/day, Rat Study No. 3, 30 mg/kg/day, group terminated Day 4, read-out: Plasma Conc. 5hr post dose Day 1
  concentration at 5 h: 5.9 µM
[2]; 30 mg/kg/day, Rat Study No. 3, 30 mg/kg/day, group terminated Day 4, read-out: Plasma Conc. 5hr post dose Day 4
  concentration at 5 h: 5.6 µM
[2]; 30 mg/kg/day, Rat Study No. 3, 30 mg/kg/day, group terminated Day 7, read-out: Plasma Conc. 5hr post dose Day 1
  concentration at 5 h: 7.2 µM
[2]; 30 mg/kg/day, Rat Study No. 3, 30 mg/kg/day, group terminated Day 7, read-out: Plasma Conc. 5hr post dose Day 7
  concentration at 5 h: 6.2 µM
[2]; 300 mg/kg/day, Rat Study No. 3, 300 mg/kg/day, group terminated Day 4, read-out: Plasma Conc. 5hr post dose Day 1
  concentration at 5 h: 12 µM
[2]; 300 mg/kg/day, Rat Study No. 3, 300 mg/kg/day, group terminated Day 4, read-out: Plasma Conc. 5hr post dose Day 4
  concentration at 5 h: 10 µM
[2]; 300 mg/kg/day, Rat Study No. 3, 300 mg/kg/day, group terminated Day 7, read-out: Plasma Conc. 5hr post dose Day 1
  concentration at 5 h: 14 µM
[2]; 300 mg/kg/day, Rat Study No. 3, 300 mg/kg/day, group terminated Day 7, read-out: Plasma Conc. 5hr post dose Day 7
  concentration at 5 h: 11 µM
[2]; rats, 30 or 300 mg/kg/day
  compound plasma levels 5 hours after the first and fourth dose: similar

Reference: EP2408450B1, “ALPHA-(N-SULFONAMIDO)ACETAMIDE COMPOUND AS AN INHIBITOR OF BETA AMYLOID PEPTIDE PRODUCTION” (Bristol-Myers Squibb Company, priority 2009, dated 2010)
